Reference: ChEMBL document CHEMBL1201862, “PubChem BioAssay data set” (2004)
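The compound was tested at five concentrations on cells cultured in 96-well plates, with a 48-hour exposure period. GI50 = concentration required for 50% inhibition of growth.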 Calls of active or inactive are those of the source. No stated cut-off is given here; in the data, active = GI50 up to about 1.1 µM and inactive = higher.

What was measured:
Test in all cases: DTP human tumour cell line panel, 48 h
786-0 = test system: 786-0
A549 = test system: A549
BT-549 = test system: BT-549
COLO 205 = test system: COLO 205
HCC 2998 = test system: HCC 2998
HOP-92 = test system: HOP-92
IGROV-1 = test system: IGROV-1
MDA-MB-231 = test system: MDA-MB-231
MDA-MB-435 = test system: MDA-MB-435
NCI-H23 = test system: NCI-H23
NCI-H460 = test system: NCI-H460
OVCAR-3 = test system: OVCAR-3
OVCAR-8 = test system: OVCAR-8
PC-3 = test system: PC-3
SF-268 = test system: SF-268
SK-MEL-28 = test system: SK-MEL-28
SK-MEL-2 = test system: SK-MEL-2
SK-OV-3 = test system: SK-OV-3
SNB-19 = test system: SNB-19
SNB-75 = test system: SNB-75

Measured: GI50

C=C1c2nc3ccccc3n2C=C(c2ccc(Cl)cc2)N1c1ccc(OCCN2CCCCC2)cc1
inactive: 786-0 > 45 µM | A549 > 45 µM | BT-549 > 45 µM | COLO 205 > 45 µM | HCC 2998 > 100 µM | HOP-92 > 45 µM | IGROV-1 > 45 µM | MDA-MB-231 > 45 µM | MDA-MB-435 1.59 µM | NCI-H23 > 45 µM | NCI-H460 1.72 µM | OVCAR-3 > 45 µM | OVCAR-8 > 45 µM | PC-3 > 45 µM | SF-268 1.63 µM | SK-MEL-28 > 45 µM | SK-MEL-2 > 45 µM | SK-OV-3 > 45 µM | SNB-19 > 45 µM

N/C(=N\c1cccc(Cl)c1)c1ccccc1N
inactive: 786-0 > 100 µM | A549 > 100 µM | BT-549 > 100 µM | COLO 205 > 100 µM | HCC 2998 > 100 µM | IGROV-1 > 100 µM | MDA-MB-231 > 100 µM | MDA-MB-435 > 100 µM | NCI-H23 > 100 µM | NCI-H460 > 100 µM | OVCAR-3 > 100 µM | OVCAR-8 > 100 µM | PC-3 > 100 µM | SF-268 > 100 µM | SK-MEL-28 > 100 µM | SK-OV-3 > 100 µM | SNB-19 > 100 µM | SNB-75 > 100 µM

Cn1c(=O)c2c(ncn2CN2CCN(Cn3cnc4c3c(=O)n(C)c(=O)n4C)CC2)n(C)c1=O
inactive: 786-0 29 µM | A549 34.2 µM | BT-549 62.2 µM | COLO 205 39.4 µM | HOP-92 52 µM | IGROV-1 78.5 µM | MDA-MB-231 > 100 µM | MDA-MB-435 86.5 µM | NCI-H23 65.9 µM | NCI-H460 19.2 µM | OVCAR-3 > 100 µM | OVCAR-8 44.6 µM | PC-3 53.5 µM | SF-268 50.9 µM | SK-MEL-28 48.1 µM | SK-MEL-2 > 100 µM | SK-OV-3 > 100 µM | SNB-19 > 100 µM | SNB-75 74.8 µM

COc1cccc(-c2nc(-c3cnccn3)n(COCCO)n2)c1
inactive: 786-0 > 100 µM | A549 > 100 µM | BT-549 > 100 µM | COLO 205 > 100 µM | HCC 2998 > 100 µM | HOP-92 > 100 µM | IGROV-1 > 100 µM | MDA-MB-231 > 100 µM | MDA-MB-435 > 100 µM | NCI-H23 > 100 µM | NCI-H460 > 100 µM | OVCAR-3 > 100 µM | OVCAR-8 > 100 µM | PC-3 > 100 µM | SF-268 > 100 µM | SK-MEL-28 > 100 µM | SK-OV-3 > 100 µM | SNB-19 > 100 µM

NC(=O)/C=C/NC(=O)/C=N\O
inactive: 786-0 > 100 µM | BT-549 > 100 µM | COLO 205 > 100 µM | HCC 2998 > 100 µM | HOP-92 > 100 µM | IGROV-1 > 100 µM | MDA-MB-231 > 100 µM | MDA-MB-435 > 100 µM | NCI-H460 > 100 µM | OVCAR-3 > 100 µM | OVCAR-8 > 100 µM | PC-3 > 100 µM | SF-268 > 100 µM | SK-MEL-28 > 100 µM | SK-OV-3 > 100 µM | SNB-19 > 100 µM | SNB-75 > 100 µM

COC(=O)C1=C(C(=O)OC)C2CCC1CC2=O (configuration not stated)
inactive: 786-0 > 100 µM | A549 > 100 µM | BT-549 > 100 µM | COLO 205 50.9 µM | HCC 2998 > 100 µM | IGROV-1 > 100 µM | MDA-MB-231 > 100 µM | MDA-MB-435 > 100 µM | NCI-H23 > 100 µM | NCI-H460 > 100 µM | OVCAR-3 > 100 µM | OVCAR-8 > 100 µM | PC-3 > 100 µM | SF-268 > 100 µM | SK-MEL-28 > 100 µM | SK-MEL-2 > 100 µM | SK-OV-3 > 100 µM | SNB-19 > 100 µM | SNB-75 > 100 µM

COc1ccc2c(-c3csc(-c4c[nH]c5ccc(Br)cc45)n3)c[nH]c2c1
inactive: 786-0 27.4 µM | A549 91.8 µM | BT-549 67.3 µM | COLO 205 54.1 µM | HOP-92 64.3 µM | IGROV-1 81.5 µM | MDA-MB-231 13.9 µM | MDA-MB-435 7.69 µM | NCI-H23 64.9 µM | NCI-H460 23.2 µM | OVCAR-3 > 100 µM | OVCAR-8 > 100 µM | PC-3 10.4 µM | SF-268 25.9 µM | SK-MEL-28 > 100 µM | SK-MEL-2 19.1 µM | SNB-19 > 100 µM
